T1: Wild Type (SEQ ID NO: 16) (Thermotoga maritima, UniProt Q9WXT2)
T1 construct: made in house; host or cells: E. coli
T1 sequence (Q9WXT2 1-325): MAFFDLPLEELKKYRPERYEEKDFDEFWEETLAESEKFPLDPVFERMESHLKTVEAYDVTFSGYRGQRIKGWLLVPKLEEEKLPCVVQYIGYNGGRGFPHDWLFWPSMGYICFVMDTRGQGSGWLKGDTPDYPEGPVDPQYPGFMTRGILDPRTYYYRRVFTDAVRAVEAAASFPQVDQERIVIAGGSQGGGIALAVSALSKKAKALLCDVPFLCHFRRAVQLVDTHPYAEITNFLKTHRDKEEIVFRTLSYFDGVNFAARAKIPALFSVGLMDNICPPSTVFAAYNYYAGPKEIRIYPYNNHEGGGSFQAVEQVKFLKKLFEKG


Experiments:
[1] = target: T2, C277S (SEQ ID NO: 424) (Thermotoga maritima, UniProt Q9WXT2, C277S); format: biochemical; details: 100 mM ester, 60 mM H2O2, 40 ppm enzyme, 95 mM phosphate pH 7.2, 37° C.
T2 construct: made in house; host or cells: E. coli
Procedure: (§1) To test various enzymes against an ester substrate, it was convenient to run up to 4 reactions simultaneously by staggering the beginning of each individual reaction by 0.5-1 min. Each individual reaction was performed in a glass vessel (height: 76 mm; o.d.: 33 mm; i.d.: 24 mm) equipped with a magnetic stirring bar. Four reaction vessels were banded together and kept at constant temperature in a jacketed one-liter, stainless steel, tempering beaker (KGW IsoTherm, # TSS-G 1000W) with circulating water controlled by a Thermo NesLab recirculation bath (Model # RTE-7 Digital One). Buffer (6 mL, 100 mM sodium phosphate buffer, pH 7.2) was added to each reaction vessel and allowed to equilibrate to 37° C. The ester substrate of interest was added to achieve 100 mM concentration. […] To follow the production of peracetic acid, 80 μL samples from each reaction were removed at specific intervals from 1 to 15 minutes. The sample was immediately quenched in a microfuge filter tube (NanoSep 30K VWR cat #82031-354) containing a volume and concentration of phosphoric acid solution that was sufficient to stop the enzymatic reaction (by lowering the pH between 2 and 3) and to dilute the sample for convenient HPLC analyses. The acid-quenched samples were centrifuged for 5 minutes to remove any particulates.

[2] = target: T3, C277T (SEQ ID NO: 437) (Thermotoga maritima, UniProt Q9WXT2, C277T); format: biochemical; details: 100 mM ester, 60 mM H2O2, 40 ppm enzyme, 95 mM phosphate pH 7.2, 37° C.
T3 construct: made in house; host or cells: E. coli
Procedure: as §1

[3] = target: T4, C277T/R296P (SEQ ID NO: 476) (Thermotoga maritima, UniProt Q9WXT2, C277T/R296P); format: biochemical; details: 100 mM ester, 60 mM H2O2, 40 ppm enzyme, 95 mM phosphate pH 7.2, 37° C.
T4 construct: made in house; host or cells: E. coli
Procedure: as §1

[4] = target: T1, Wild Type (SEQ ID NO: 16); assay: Maximum peracetic acid from ester substrates with wild type perhydrolase (Example 14); format: biochemical; details: 100 mM ester, 60 mM H2O2, 40 ppm enzyme, 95 mM phosphate pH 7.2, 37° C.
Procedure: as §1

[5] = Retention of perhydrolase on hydroxyapatite (SDS-PAGE band strength); format: binding; details: relative to enzyme input = 1
Procedure: Perhydrolase enzymes listed in Table 6 were assessed for binding to hydroxyapatite. A dispersion of hydroxyapatite nanoparticles (Aldrich 677418) was made at 0.5% solids in 10 mM phosphate buffer at pH 7.2. Enzyme stock solution was added to the hydroxyapatite dispersion to a final concentration of 10 μM and incubated for 30 min in a microcentrifuge tube with gentle agitation. Each sample was centrifuged for 5 min at 10000 rpm. The supernatant was removed and additional buffer was added. The particles were resuspended and transferred to a new tube. The process was repeated two additional times. Samples of the original input of enzyme, the supernatant removed from the particles with each wash step and the final particles were prepared for SDS-PAGE analysis by combining 60 μL of sample, 20 μL of LDS buffer and 8 μL of reducing agent (Nu-PAGE). Samples were heated at 85° C. for 10 min. 25 μL of each sample was loaded on a 4-12% BisTris gel (Invitrogen) and run at 115 volts for 1.5 h. The gel was removed and stained with a 1:1 dilution of Simply Blue stain (Invitrogen) overnight and destained for 4 h in deionized water. The gel was analyzed and detection of enzyme in each fraction was estimated based on the presence of a band. The results of the analysis are provided in Table 7 with an indication of the relative strength of each band in the gel compared to the enzyme input (input=1) to determine the strength of binding between the hydroxyapatite surface and each enzyme.

[6] = Two-step bleaching of coffee-tea stained bovine enamel (Example 16)
Procedure: Bovine enamel incisors were prepared as indicated in Example 1. The stained enamel blocks were embedded in a 48 well plate to protect the dentin backside from solution exposure. A solution of 10 μM of each enzyme in 10 mM phosphate buffer, pH 7.2 was prepared and 500 μL of solution was incubated with each enamel substrate for 60 min. The enzyme solution was removed and each well was rinsed three times with an additional 500 μL of buffer. The enamel blocks were placed in a fresh well for the whitening process. A solution with a final concentration of 40 mM triacetin, 100 mM H2O2 in 50 mM phosphate pH 7.2 buffer was freshly prepared and 500 μL of solution was added to each enamel block. Over the course of 1 hr the enamel blocks were removed and a color measurement was obtained and then each was returned to the solution in the well plate. The whiteness index for each sample was monitored.

T4 sequence (Q9WXT2 whole entry C277T/R296P): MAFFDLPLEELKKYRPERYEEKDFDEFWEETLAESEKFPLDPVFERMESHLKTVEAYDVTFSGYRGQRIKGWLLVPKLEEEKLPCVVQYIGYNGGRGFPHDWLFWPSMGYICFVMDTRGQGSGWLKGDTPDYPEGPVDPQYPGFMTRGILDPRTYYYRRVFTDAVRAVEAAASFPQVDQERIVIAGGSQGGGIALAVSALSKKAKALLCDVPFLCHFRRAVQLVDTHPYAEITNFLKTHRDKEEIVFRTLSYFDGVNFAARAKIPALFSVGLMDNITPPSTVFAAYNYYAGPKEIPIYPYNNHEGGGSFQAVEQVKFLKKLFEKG
T3 sequence (Q9WXT2 whole entry C277T): as the sequence (Q9WXT2 whole entry C277T/R296P) above, with P296R counted along it

Molecule | Maximum Peracetic Acid (PAA) (ppm), C277S (SEQ ID NO: 424) [1] [ppm] | Maximum Peracetic Acid (PAA) (ppm), C277T (SEQ ID NO: 437) [2] [ppm] | Maximum Peracetic Acid (PAA) (ppm), C277T/R296P (SEQ ID NO: 476) [3] [ppm] | Maximum Peracetic Acid (PAA) (ppm), Wild Type (SEQ ID NO: 16) [4] [ppm] | further results
C=CC(COC(C)=O)OC(C)=O (stereo not drawn) [3,4-diacetoxy-1-butene] | 2281 | 2285 | 2478 | 1692 | –
CO[C@@H]1OC[C@@H](OC(C)=O)[C@H](OC(C)=O)[C@H]1OC(C)=O [β-methyl xyloside triacetin] | 3856 | 3635 | – | – | –
CC(=O)OC[C@H]1OC(OC(C)=O)[C@@H](O)[C@@H](OC(C)=O)[C@@H]1OC(C)=O (stereo partly drawn) [1,3,4,6-tetra-O-acetyl-mannopyranose] | 3593 | 3436 | – | 2361 | –
CC(=O)Oc1ccc(C(=O)O)cc1 [4-acetoxybenzoic acid] | 604 | 426 | 485 | 398 | –
CC(=O)O[C@@H]1O[C@H](CO)[C@@H](OC(C)=O)[C@H](OC(C)=O)[C@H]1OC(C)=O [β-D-glucopyranose,1,2,3,4-tetraacetate] | 2309 | 2225 | 2235 | 2129 | –
CC(=O)OC[C@H]1OC(OC(C)=O)[C@H](OC(C)=O)[C@@H]1OC(C)=O (stereo partly drawn) [1,2,3,5-tetra-O-acetyl-ribofuranose] | 3397 | 3472 | 3270 | 2828 | –
CC(=O)OC[C@H]1O[C@@H](OC(C)=O)[C@H](OC(C)=O)[C@H]1OC(C)=O [β-D-xylofuranose tetraacetate] | 3354 | 3481 | 3158 | 2384 | –
CC(=O)OCCCCCOC(C)=O [1,5-pentanediol diacetate] | 335 | 484 | 364 | 435 | –
COCC(C)OC(C)=O (stereo not drawn) [Propylene glycol methyl ether acetate] | 173 | 197 | 181 | 177 | –
CC(=O)OCCOC(C)=O [Ethylene glycol diacetate] | 1007 | 1059 | 1020 | 794 | –
CC(=O)OC1OC[C@@H](OC(C)=O)[C@@H](OC(C)=O)[C@H]1OC(C)=O (stereo partly drawn) [1,2,3,4-tetra-O-acetyl-ribopyranose] | 3525 | 3361 | 3503 | 2278 | –
CC(=O)OCc1ccc(C=O)o1 [5-acetoxymethyl-2-furaldehyde] | 1185 | 1125 | 1136 | 778 | –
CC(=O)OC[C@H]1O[C@@H](S)[C@H](OC(C)=O)[C@@H](OC(C)=O)[C@@H]1OC(C)=O [1-thio-β-D glucose-2,3,4,6-tetraacetate] | 0 | 171 | 147 | 156 | –
CC(=O)OCC(O)COC(C)=O [Diacetin] | 1013 | 1132 | 1087 | 1160 | –
CC(=O)OC[C@H](OC(C)=O)[C@@H](OC(C)=O)[C@H](OC(C)=O)[C@@H](COC(C)=O)OC(C)=O [Sorbitol hexaacetate] | 712 | 705 | 616 | 381 | –
CC(=O)N[C@@H]1[C@@H](OC(C)=O)[C@H](OC(C)=O)[C@@H](COC(C)=O)O[C@@H]1Cl [2-acetamido-2-deoxy-3,4,6 triacetyl-1-chloride-α-D-glucopyranose] | 863 | 899 | 876 | 548 | –
CC(=O)OC[C@H]1OC=C[C@@H](OC(C)=O)[C@@H]1OC(C)=O [Tri-O-acetyl glucal] | 1047 | 1319 | 1034 | 729 | –
CC(=O)OC[C@H]1O[C@H](OC(C)=O)[C@@H](OC(C)=O)[C@@H](OC(C)=O)[C@@H]1OC(C)=O [α-D-mannopyranose pentaacetate] | 4017 | 4212 | 3752 | 4023 | –
CC(=O)OC[C@H]1O[C@@H](OC(C)=O)[C@H](OC(C)=O)[C@@H](OC(C)=O)[C@H]1OC(C)=O [β-D-galactose pentaacetate] | 2539 | 2546 | 1947 | 764 | –
EZ-4: C277S-link1-(GK)5, SEQ ID NO: 427 (protein) MAFFDLPLEELKKYRPERYEEKDFDEFWEETLAESEKFPLDPVFERMESHLKTVEAYDVTFSGYRGQRIKGWLLVPKLEEEKLPCVVQYIGYNGGRGFPHDWLFWPSMGYICFVMDTRGQGSGWLKGDTPDYPEGPVDPQYPGFMTRGILDPRTYYYRRVFTDAVRAVEAAASFPQVDQERIVIAGGSQGGGIALAVSALSKKAKALLCDVPFLCHFRRAVQLVDTHPYAEITNFLKTHRDKEEIVFRTLSYFDGVNFAARAKIPALFSVGLMDNISPPSTVFAAYNYYAGPKEIRIYPYNNHEGGGSFQAVEQVKFLKKLFEKGGPGSGGAGSPGSAGGPGSGKGKGKGKGK | – | – | – | – | Unbound (relative band strength) ([5]; 10 μM enzyme, 0.5% hydroxyapatite, pH 7.2): 0.5; HAP Particles (relative band strength) ([5]; enzyme retained on particles after washes): 0.4; Wash1 (relative band strength) [5]: 0.05; Wash2 (relative band strength) [5]: 0.05; Whiteness Index 0 min ([6]; two-step: 10 μM enzyme 60 min, rinsed, then 40 mM triacetin, 100 mM H2O2, pH 7.2, before step 2): −158.9; ΔWI ([6]; two-step, 0 to 60 min): 69.4; Whiteness Index 5 min ([6]; two-step, 5 min in triacetin/H2O2): −143.6; Whiteness Index 15 min ([6]; two-step, 15 min in triacetin/H2O2): −149.5; Whiteness Index 30 min ([6]; two-step, 30 min in triacetin/H2O2): −129.4; Whiteness Index 45 min ([6]; two-step, 45 min in triacetin/H2O2): −106.5; Whiteness Index 60 min ([6]; two-step, 60 min in triacetin/H2O2): −89.5

Reference: patent US8663616B2, “Enzymatic peracid generation for use in oral care products” (E I du Pont de Nemours and Company, priority 2010, dated 2014)
